“And” between values parts separate entries of the source, which are not always exact repeats. Equal values may be shown once.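 Five concentrations, 48 hours, 96-well plates. The concentration for 50% growth inhibition is given as GI50. The concentration for full growth arrest is given as TGI.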
Tests used:
Assay in all cases: NCI tumour cell line growth inhibition, 48 h
OVCAR-3 ovarian = test system: OVCAR-3 ovarian
IGROV1 ovarian = test system: IGROV1 ovarian
HL-60(TB) leukemia = test system: HL-60(TB) leukemia
A549 NSCLC = test system: A549 NSCLC
UO-31 renal = test system: UO-31 renal
HT29 colon = test system: HT29 colon
SR leukemia = test system: SR leukemia
SNB-75 CNS = test system: SNB-75 CNS

Row | SMILES | GI50 (OVCAR-3 ovarian) | TGI (OVCAR-3 ovarian) | GI50 (IGROV1 ovarian) | TGI (IGROV1 ovarian) | GI50 (HL-60(TB) leukemia) | TGI (HL-60(TB) leukemia) | GI50 (A549 NSCLC) | TGI (A549 NSCLC) | GI50 (UO-31 renal) | TGI (UO-31 renal) | GI50 (HT29 colon) | TGI (HT29 colon) | GI50 (SR leukemia) | TGI (SR leukemia) | GI50 (SNB-75 CNS) | TGI (SNB-75 CNS)
1 | O=C1OCC2=C1C(c1cccc(C(F)(F)F)c1)c1cc3c(cc1N2CCO)CCC3 (stereo unspecified) | 0.161 µM | 2.21 µM | 0.312 µM | 8.25 µM | 0.133 µM | 0.427 µM | 0.201 µM | 8.04 µM | 0.323 µM | 9.01 µM | 0.167 µM | 5.27 µM |  |  |  | 
2 | N/C(=N\c1nc2ccccc2s1)NC(=O)Nc1cccc2ccccc12 | 0.228 µM | 1.09 µM | 0.371 µM | > 100 µM | 0.283 µM | 0.968 µM | 0.436 µM | > 100 µM | 0.802 µM | > 100 µM | 0.19 µM | > 100 µM | 0.0591 µM | > 100 µM | 0.198 µM | 1.1 µM
3 | CCOC(=O)/C(=C\c1ccc(F)cc1)C(C)=O |  | > 100 µM |  | 38.9 µM |  | 53.2 µM |  | > 100 µM |  | 31.2 µM |  | > 100 µM |  | 64 µM |  | 74.2 µM
4 | CN(C)CCNC(=O)c1nc([N+](=O)[O-])cn1C |  | > 100 µM |  | > 100 µM |  | > 100 µM |  | > 100 µM |  | > 100 µM |  | > 100 µM |  | > 100 µM |  | > 100 µM
5 | C[C@@H]1COC(Nc2ccc3ncnc(Nc4ccc(OCc5nccs5)c(Cl)c4)c3c2)=N1 | 2.07 µM and 2.67 µM | > 10 µM and 14.2 µM | 1.09 µM and 0.544 µM | > 10 µM and 8.03 µM | 3.7 µM and 4.2 µM | > 100 µM | > 10 µM and 5.3 µM | > 10 µM and 32.4 µM | 0.821 µM and 1.29 µM | > 10 µM and 13.5 µM | 5.04 µM and 4.33 µM | > 10 µM and 17.8 µM | 6.79 µM and 3.97 µM | > 10 µM and 21.9 µM | 8.88 µM and 6.83 µM | > 10 µM and 21.4 µM
6 | Cc1cc2nc3c4cccc(O)c4n(CCN(C)C)c3nc2cc1C | 3.11 µM | 15.7 µM | 1.32 µM | 10.8 µM | 1.57 µM | 4.13 µM | 1.41 µM | 12.5 µM | 0.86 µM | 3.28 µM | 2.81 µM | 20 µM | 0.767 µM | 7.03 µM | 1.18 µM | 11.1 µM
7 | CN(C)S(=O)(=O)c1ccc(Nc2ccc(O)c3c2C(=O)c2c([N+](=O)[O-])ccc(O)c2C3=O)cc1 |  | > 100 µM |  | > 100 µM |  | > 100 µM |  | > 100 µM |  | > 100 µM |  | > 100 µM |  | > 100 µM |  | > 100 µM
8 | CNCCOC(=O)/C=C1/CCC2C(C(O)CC3C(C)(C(=O)OC)CCCC23C)C1C (stereo unspecified) | < 0.0139 µM | 0.0276 µM | 0.0305 µM | 0.0971 µM | 0.0261 µM | 0.0638 µM | < 0.01 µM | 0.0116 µM | 0.0187 µM | 0.0372 µM | 0.0231 µM | 0.0473 µM | 0.0198 µM | 0.0553 µM | 0.0181 µM | 0.0397 µM
9 | O=C1C=CC(=O)c2c1ncc1c2nc2sccn21 | 20.3 µM | 63.4 µM | 22.7 µM | 56.6 µM |  |  | 52.4 µM | > 100 µM | 13.8 µM | 72.3 µM | 37.6 µM | > 100 µM | 3.53 µM | 35.3 µM |  | 
10 | COc1ccc(-c2nc3sc4c(c3c(=O)[nH]2)CCCC4)c2ccccc12 |  |  |  | > 100 µM | 0.301 µM | 2.04 µM | 0.42 µM |  | 0.59 µM |  |  |  | 0.418 µM |  |  | 0.792 µM and 1.61 µM
11 | COc1cc2c3c(n(C)c(=O)c2cc1OC)-c1cc2c(cc1/C3=C/[C@H](N)CCCCN)OCO2 | 1.45 µM | 9.89 µM | 1.27 µM | 7.43 µM | 13.4 µM | > 100 µM | 0.622 µM | 24.5 µM | 3.14 µM | 23 µM | 1.65 µM | > 100 µM | 0.123 µM | > 100 µM | 3.74 µM | 27.7 µM
12 | CCN1CCC(CC(=O)Nc2n[nH]c3nc(-c4cccs4)c(Br)cc23)CC1 | 10.4 µM | > 25 µM | 12.8 µM | > 25 µM | 7.31 µM | 14.8 µM | 8.82 µM | > 25 µM | 9.05 µM | > 25 µM | 4.47 µM | 11.1 µM | 11.2 µM | > 25 µM | 2.34 µM | > 20.4 µM
13 | CO/C(=N\N=C\c1cccc(C(F)(F)F)c1)c1ccncc1 |  | 84.1 µM |  | 79.3 µM | 2.45 µM | 7.77 µM and 18 µM | 15.5 µM | > 100 µM | 6.09 µM | 40.8 µM | 3.47 µM | 19 µM | 3.33 µM | 46.3 µM |  | 52.9 µM
14 | Cc1ccc2nc(N/N=C/c3cccc(C)n3)cc(C)c2c1 |  | 30 µM |  | 32 µM |  | > 100 µM |  | 43.4 µM |  | 41.3 µM |  | 27.3 µM |  | 45.3 µM |  | 36.6 µM
15 | O=C1CC/C(=C\COc2ccc3ccc(=O)oc3c2)O1 | 4.44 µM | 22 µM | 4.2 µM | 17.8 µM |  |  | 24.1 µM | > 100 µM | 6.41 µM | 21.4 µM | 3.04 µM | 17.3 µM |  |  | 12.7 µM | 30.2 µM
16 | Cc1ccc(F)cc1NC(=O)c1cc(Cl)ccc1Nc1ccccc1 | > 100 µM | > 100 µM | > 100 µM | > 100 µM | > 100 µM | > 100 µM | > 100 µM | > 100 µM | > 100 µM | > 100 µM | > 100 µM | > 100 µM | > 100 µM | > 100 µM | 22.7 µM | > 100 µM
17 | O=C(NC1(C(=O)O)CC1c1ccccc1)c1ccccc1 (stereo unspecified) |  | > 100 µM |  | > 100 µM |  | > 100 µM |  | > 100 µM |  | > 100 µM |  | > 100 µM |  | > 100 µM |  | > 100 µM
18 | N=C(N)c1ccc(-c2ccc(-c3ccc(F)cc3)o2)o1 | 1.84 µM | 4.16 µM | 1.58 µM | 3.35 µM | 1.8 µM | 4.4 µM | 1.65 µM | 3.3 µM | 1.43 µM | 2.78 µM | 0.606 µM | 1.94 µM |  |  | 1.55 µM | 3.49 µM
19 | COc1cc2c3c(n(CCCNCCNCCCN)c(=O)c2cc1OC)-c1cc2c(cc1C3=O)OCO2 | 2.22 µM | 7.63 µM | 1.04 µM | 7.09 µM | 6.11 µM | 51.7 µM | 10.8 µM | > 100 µM | 5.67 µM | 23.6 µM | 2.03 µM | 10.2 µM |  |  | 10.3 µM | 26.7 µM
